In ChEMBL document CHEMBL1201862, “PubChem BioAssay data set” (2004):
Each block holds one compound with its values, some of them ahead of it. Calls of active or inactive are those of the source.

Columns and labels:
[1] = HIV-1 Vif–A3G interaction blockers – biochemical, TR-FRET, GST-Vif 1-94, biotin-A3G peptide, dose response retest, primary screen (AID 1117319); format: functional;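 further: TR-FRET signal of purified GST-Vif binding a biotinylated A3G peptide; inhibitors lower the FRET signal by blocking Vif and A3G binding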
Leucine aminopeptidase = target: T1, Leucine aminopeptidase (Plasmodium falciparum 3D7, UniProt Q8IL11); assay: P. falciparum M17LAP inhibitors, primary screen, biochemical, fluorogenic H-Leu-NHMec substrate, 1536-well (AID 1619); format: functional
T1 sequence (Q8IL11 whole entry): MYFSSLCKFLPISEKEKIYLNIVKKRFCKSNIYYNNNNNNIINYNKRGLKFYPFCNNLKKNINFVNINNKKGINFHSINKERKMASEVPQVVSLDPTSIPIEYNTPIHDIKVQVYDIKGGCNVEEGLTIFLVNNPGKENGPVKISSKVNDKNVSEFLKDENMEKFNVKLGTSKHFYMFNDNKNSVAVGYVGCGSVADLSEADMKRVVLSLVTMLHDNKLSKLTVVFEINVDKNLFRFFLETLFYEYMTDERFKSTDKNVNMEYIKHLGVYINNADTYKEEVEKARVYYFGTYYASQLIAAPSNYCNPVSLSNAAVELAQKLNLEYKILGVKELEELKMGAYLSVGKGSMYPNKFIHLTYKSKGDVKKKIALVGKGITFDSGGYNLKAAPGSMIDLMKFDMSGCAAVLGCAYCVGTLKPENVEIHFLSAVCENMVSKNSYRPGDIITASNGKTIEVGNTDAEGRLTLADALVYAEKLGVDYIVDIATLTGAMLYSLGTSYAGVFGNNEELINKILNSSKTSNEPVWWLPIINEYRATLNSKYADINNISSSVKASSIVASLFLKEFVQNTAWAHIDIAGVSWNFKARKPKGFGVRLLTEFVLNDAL

[2] = target: T2, Rac GTPase-activating protein 1 (Homo sapiens, UniProt Q9H0H5); assay: blockers of MgcRacGAP-driven Rac1 GTP hydrolysis – biochemical, ADP Hunter fluorescence, primary and confirmatory, confirmation (AID 624330); format: functional
T2 sequence (Q9H0H5 whole entry): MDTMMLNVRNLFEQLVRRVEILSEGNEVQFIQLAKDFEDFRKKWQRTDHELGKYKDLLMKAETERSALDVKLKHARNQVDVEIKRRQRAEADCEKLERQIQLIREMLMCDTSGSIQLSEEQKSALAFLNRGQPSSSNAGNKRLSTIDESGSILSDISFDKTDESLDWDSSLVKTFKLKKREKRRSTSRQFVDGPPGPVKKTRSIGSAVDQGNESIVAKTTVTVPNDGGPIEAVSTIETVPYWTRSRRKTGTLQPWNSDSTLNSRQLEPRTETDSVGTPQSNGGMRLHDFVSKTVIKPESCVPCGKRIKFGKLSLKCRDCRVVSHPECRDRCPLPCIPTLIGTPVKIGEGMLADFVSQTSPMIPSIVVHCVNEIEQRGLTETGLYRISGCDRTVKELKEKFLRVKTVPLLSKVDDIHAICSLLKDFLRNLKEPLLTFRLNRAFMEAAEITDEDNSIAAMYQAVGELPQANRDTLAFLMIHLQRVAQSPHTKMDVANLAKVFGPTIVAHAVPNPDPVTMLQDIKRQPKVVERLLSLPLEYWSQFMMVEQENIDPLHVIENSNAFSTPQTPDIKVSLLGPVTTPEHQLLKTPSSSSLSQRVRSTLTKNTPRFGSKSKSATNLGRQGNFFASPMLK

[3] = target: T3, Mannose-6-phosphate isomerase (Homo sapiens, UniProt P34949); assay: MPI inhibition at elevated mannose 6-phosphate – biochemical, fluorescence intensity, high mannose 6-phosphate, primary screen (AID 1220)
T3 sequence (P34949 whole entry): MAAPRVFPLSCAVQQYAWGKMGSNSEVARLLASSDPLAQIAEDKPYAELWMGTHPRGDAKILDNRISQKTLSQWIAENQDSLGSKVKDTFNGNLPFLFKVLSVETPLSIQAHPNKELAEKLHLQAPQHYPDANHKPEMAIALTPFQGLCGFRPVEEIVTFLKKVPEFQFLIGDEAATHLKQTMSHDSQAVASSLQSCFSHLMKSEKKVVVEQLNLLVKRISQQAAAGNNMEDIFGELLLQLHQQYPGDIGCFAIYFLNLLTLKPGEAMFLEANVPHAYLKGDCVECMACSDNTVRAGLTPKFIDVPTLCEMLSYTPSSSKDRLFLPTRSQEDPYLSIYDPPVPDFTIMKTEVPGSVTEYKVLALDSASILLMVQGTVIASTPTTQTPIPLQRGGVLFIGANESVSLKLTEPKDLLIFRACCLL

[4] = target: Peroxisome proliferator-activated receptor gamma/Nuclear receptor coactivator 3 (Homo sapiens, UniProt P37231); assay: TR-FRET dose response biochemical High Throughput Screening assay for agonists of the steroid receptor coactivator 3 (SRC-3) recruitment by the peroxisome proliferator-activated receptor gamma (PPAR gamma): non-selective agonists. [Related pubchem assays: 1301 (Confirmation screen.), 1048 (Primary screen.)]; format: functional
[5] = target: Peroxisome proliferator-activated receptor gamma/Nuclear receptor coactivator 2 (Homo sapiens, UniProt P37231); assay: (§1) TR-FRET dose response biochemical High Throughput Screening assay for agonists of the steroid receptor coactivator 2 (SRC-2) recruitment by the peroxisome proliferator-activated receptor gamma (PPAR gamma): non-selective agonists. [Related pubchem assays: 1297, 1032 ]; format: functional
[6] = target: Peroxisome proliferator-activated receptor gamma/Nuclear receptor coactivator 1 (Homo sapiens, UniProt P37231); assay: as §1, with “1 (SRC-1)” for “2 (SRC-2)”, “assays (depositor defined):AID1300, AID1808, AID504735, AID631]” for “assays: 1297, 1032 ]”; format: protein assay
HEK293 = assay: cells; format: functional, cell-based; settings: Homo sapiens
[7] = target: T4, Nuclear receptor subfamily 0 group B member 1 (Homo sapiens, UniProt P51843); assay: Luminescence-based cell-based high throughput dose response assay for inhibitors of the orphan nuclear receptor subfamily 0, group B, member 1 (DAX1; NR0B1). [Related pubchem assays (depositor defined):AID504766, AID504790]; format: functional
T4 sequence (P51843 whole entry): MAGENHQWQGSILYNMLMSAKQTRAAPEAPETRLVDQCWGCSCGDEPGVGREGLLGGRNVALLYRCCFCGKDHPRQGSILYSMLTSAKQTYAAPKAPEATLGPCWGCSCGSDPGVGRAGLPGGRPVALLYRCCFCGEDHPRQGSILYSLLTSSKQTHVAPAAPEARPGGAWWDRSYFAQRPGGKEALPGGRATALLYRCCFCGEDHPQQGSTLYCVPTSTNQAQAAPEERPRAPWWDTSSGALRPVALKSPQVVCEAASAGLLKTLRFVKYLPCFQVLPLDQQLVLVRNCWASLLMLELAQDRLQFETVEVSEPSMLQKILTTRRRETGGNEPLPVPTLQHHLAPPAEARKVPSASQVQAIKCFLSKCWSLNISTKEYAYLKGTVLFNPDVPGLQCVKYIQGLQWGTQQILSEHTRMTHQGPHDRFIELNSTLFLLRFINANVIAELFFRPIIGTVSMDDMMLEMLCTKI

[8] = viability loss in THP-1 monocytes – THP-1 cells, cytotoxicity control for Vif-APOBEC3G degradation inhibitor project, dose response (AID 1117359); format: functional; settings: THP-1
Aminopeptidase N = target: T5, Aminopeptidase N (Plasmodium falciparum FcB1/Columbia, UniProt O96935); assay: malaria alanyl aminopeptidase activity blockers – biochemical, fluorogenic H-Leu-NHMec substrate, 1536-well (AID 1445); parameters: species or system Plasmodium falciparum 3D7, 3D7
T5 sequence (O96935 whole entry): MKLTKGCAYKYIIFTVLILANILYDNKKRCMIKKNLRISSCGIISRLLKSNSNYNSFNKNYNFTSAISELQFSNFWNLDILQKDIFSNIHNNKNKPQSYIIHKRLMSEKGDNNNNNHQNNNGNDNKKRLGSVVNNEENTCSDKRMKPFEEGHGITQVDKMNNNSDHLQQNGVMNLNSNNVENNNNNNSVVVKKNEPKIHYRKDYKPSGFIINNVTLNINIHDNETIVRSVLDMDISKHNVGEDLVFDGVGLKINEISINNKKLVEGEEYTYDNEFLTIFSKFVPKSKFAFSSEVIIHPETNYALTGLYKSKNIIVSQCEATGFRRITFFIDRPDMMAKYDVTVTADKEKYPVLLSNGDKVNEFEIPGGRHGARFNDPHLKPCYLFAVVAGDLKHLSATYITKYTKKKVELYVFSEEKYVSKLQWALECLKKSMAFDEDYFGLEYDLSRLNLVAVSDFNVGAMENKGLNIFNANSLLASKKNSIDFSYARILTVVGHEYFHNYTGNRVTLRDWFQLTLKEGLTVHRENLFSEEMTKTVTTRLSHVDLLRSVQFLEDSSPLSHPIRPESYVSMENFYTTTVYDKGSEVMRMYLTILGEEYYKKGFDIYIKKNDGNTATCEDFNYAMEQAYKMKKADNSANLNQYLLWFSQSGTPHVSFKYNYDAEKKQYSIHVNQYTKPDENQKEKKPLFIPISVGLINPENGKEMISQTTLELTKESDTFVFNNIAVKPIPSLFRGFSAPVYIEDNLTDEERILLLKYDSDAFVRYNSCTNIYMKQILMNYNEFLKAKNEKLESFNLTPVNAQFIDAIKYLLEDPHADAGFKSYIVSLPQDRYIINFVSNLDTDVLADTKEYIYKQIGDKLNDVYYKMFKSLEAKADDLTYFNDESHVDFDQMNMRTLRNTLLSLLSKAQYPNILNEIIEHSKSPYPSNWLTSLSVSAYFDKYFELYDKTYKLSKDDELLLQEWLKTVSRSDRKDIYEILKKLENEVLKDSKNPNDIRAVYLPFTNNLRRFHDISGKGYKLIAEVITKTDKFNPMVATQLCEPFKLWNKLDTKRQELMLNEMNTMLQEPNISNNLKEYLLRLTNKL

Genome polyprotein = Genome polyprotein (dengue virus type 2, UniProt P29990); assay: flavivirus cap methylation enzyme inhibition – biochemical, confirmation dose response, primary screen (AID 588689); format: functional
[9] = inhibition of ADAM10 peptide cleavage – biochemical, FRET peptide substrate, recombinant human ADAM10, selectivity assay for ADAM17 exosite inhibitor project, dose response (AID 743259);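 further: ADAM10 enzyme cleaving a FRET peptide substrate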
[10] = viability of uninfected HEp-2 cells – cell-based, HTS, cytotoxicity control for RSV inhibitor project, dose response (AID 2410); format: functional; settings: human respiratory syncytial virus
[11] = target: Disintegrin and metalloproteinase domain-containing protein 17 (Homo sapiens, UniProt P78536); assay: exosite inhibitors of ADAM17, dose response, biochemical (AID 743260)

Chain of Peroxisome proliferator-activated receptor gamma/Nuclear receptor coactivator 1 (P37231 whole entry): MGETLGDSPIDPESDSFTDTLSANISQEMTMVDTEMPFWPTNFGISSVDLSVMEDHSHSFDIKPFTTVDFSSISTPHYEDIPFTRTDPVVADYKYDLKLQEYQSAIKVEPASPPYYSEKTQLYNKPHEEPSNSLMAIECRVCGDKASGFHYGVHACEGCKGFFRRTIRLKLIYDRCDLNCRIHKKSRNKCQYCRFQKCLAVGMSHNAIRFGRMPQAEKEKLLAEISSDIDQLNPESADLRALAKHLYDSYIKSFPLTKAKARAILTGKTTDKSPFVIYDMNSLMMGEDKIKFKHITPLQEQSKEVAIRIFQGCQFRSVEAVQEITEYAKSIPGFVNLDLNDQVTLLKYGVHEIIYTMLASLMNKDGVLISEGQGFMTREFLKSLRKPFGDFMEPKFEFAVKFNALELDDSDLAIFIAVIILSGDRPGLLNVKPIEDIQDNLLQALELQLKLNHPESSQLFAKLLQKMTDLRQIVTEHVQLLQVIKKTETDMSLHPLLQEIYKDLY
Chain of Peroxisome proliferator-activated receptor gamma/Nuclear receptor coactivator 1 (Q15788 whole entry, further chain): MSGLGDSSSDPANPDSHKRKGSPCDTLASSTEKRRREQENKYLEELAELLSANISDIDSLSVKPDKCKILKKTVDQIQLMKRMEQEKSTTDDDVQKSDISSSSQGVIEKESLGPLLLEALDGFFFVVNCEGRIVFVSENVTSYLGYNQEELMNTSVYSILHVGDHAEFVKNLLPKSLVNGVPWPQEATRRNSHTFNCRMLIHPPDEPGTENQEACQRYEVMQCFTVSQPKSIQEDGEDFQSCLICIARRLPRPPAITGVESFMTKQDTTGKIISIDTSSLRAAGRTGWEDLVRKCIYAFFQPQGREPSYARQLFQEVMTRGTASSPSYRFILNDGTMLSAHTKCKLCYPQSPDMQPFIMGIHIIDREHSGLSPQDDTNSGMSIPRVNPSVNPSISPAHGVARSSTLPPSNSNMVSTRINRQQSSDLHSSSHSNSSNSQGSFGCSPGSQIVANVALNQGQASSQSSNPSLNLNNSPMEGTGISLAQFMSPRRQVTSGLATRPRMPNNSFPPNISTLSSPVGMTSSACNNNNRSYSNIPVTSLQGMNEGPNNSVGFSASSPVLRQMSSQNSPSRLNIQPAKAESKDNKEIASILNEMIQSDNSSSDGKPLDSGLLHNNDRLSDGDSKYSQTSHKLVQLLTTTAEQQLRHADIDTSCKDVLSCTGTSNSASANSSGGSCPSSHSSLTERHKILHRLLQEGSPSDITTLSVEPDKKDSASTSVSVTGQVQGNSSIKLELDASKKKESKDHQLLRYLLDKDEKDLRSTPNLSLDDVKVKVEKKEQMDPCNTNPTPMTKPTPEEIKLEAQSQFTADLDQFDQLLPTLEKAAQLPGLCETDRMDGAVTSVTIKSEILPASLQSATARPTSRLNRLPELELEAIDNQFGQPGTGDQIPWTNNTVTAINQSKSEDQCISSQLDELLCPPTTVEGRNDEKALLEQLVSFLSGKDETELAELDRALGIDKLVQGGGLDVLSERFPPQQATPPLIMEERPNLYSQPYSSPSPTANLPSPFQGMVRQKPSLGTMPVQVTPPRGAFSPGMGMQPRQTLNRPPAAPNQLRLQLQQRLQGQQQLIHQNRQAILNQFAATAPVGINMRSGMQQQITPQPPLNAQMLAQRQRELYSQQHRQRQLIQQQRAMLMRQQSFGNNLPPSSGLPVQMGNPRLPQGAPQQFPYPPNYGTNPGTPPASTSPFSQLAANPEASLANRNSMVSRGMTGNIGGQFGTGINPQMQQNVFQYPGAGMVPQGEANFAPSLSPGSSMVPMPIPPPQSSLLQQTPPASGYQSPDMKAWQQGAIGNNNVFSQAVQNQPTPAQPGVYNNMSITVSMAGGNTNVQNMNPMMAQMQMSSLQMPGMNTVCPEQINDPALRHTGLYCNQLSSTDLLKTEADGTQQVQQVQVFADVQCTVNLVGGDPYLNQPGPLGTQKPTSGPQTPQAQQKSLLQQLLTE
Chain of Peroxisome proliferator-activated receptor gamma/Nuclear receptor coactivator 2 (P37231 whole entry): as the sequence (P37231 whole entry) above
Chain of Peroxisome proliferator-activated receptor gamma/Nuclear receptor coactivator 2 (Q15596 whole entry, further chain): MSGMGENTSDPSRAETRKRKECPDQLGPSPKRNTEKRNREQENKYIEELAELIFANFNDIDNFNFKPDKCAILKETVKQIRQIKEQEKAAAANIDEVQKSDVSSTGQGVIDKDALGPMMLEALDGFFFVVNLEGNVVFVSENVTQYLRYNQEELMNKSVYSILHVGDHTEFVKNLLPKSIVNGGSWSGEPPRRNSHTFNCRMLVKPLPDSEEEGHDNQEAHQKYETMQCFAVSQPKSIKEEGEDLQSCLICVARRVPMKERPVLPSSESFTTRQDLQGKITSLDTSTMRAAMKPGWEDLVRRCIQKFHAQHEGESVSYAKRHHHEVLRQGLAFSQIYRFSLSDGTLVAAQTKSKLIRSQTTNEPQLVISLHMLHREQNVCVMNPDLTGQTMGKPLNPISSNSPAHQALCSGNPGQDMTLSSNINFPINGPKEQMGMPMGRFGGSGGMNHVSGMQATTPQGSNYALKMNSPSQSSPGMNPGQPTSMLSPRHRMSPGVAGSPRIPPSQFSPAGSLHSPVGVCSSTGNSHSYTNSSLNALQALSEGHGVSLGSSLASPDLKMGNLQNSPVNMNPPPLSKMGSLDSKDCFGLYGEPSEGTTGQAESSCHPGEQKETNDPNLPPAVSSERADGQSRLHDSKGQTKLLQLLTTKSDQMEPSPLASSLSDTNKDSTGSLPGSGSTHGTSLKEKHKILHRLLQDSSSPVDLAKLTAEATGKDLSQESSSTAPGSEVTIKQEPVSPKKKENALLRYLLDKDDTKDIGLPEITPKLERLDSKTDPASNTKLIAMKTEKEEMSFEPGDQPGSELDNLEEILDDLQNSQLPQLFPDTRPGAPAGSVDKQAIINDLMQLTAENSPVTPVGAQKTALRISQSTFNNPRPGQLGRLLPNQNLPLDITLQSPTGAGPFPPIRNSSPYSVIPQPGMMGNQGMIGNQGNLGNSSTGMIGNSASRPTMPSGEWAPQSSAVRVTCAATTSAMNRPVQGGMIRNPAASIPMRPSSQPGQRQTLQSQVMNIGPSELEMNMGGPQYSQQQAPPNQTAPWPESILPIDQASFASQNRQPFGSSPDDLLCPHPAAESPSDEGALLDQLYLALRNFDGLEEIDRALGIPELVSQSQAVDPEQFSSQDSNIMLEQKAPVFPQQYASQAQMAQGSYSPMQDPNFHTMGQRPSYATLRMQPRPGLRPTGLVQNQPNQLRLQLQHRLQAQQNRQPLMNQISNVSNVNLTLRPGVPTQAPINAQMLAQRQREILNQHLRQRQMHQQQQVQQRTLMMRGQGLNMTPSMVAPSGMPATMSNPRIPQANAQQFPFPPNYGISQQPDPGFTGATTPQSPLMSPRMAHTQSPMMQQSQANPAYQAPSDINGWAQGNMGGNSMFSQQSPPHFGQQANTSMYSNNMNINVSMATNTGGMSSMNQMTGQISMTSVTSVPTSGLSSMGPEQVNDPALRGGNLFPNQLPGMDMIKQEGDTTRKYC
Chain of Genome polyprotein (P29990 2492-3391 limits assumed): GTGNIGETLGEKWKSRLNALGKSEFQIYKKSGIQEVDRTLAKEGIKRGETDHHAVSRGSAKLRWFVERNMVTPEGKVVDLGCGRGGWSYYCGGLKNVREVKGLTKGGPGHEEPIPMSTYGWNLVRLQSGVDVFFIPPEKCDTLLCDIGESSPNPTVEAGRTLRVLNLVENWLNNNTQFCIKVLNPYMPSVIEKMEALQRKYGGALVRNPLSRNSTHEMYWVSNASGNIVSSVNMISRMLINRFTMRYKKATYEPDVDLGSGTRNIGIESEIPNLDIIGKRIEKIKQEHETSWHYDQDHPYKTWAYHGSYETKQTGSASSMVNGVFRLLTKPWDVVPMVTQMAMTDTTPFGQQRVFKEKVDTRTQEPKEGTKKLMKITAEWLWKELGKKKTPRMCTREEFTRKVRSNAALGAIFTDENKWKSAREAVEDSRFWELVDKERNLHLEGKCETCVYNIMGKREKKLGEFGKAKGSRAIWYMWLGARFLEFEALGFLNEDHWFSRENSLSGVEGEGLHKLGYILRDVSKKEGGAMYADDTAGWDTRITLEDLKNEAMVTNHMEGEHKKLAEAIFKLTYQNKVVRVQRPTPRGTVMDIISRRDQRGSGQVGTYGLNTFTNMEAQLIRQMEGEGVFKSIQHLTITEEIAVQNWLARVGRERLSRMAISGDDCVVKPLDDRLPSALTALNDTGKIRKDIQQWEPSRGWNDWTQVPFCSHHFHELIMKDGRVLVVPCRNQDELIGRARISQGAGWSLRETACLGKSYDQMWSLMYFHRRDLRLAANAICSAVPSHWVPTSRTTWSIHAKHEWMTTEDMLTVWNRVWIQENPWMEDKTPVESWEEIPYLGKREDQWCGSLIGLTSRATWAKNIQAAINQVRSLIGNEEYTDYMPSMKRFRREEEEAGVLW

SMILES: Cc1cc(=O)c2c(O)c(O)ccc2o1
IC50 (Leucine aminopeptidase): 110 µM (active) | IC50 [1]: > 100 µM (active) | IC50 [2]: 32.2 µM (active) | IC50 [3]: > 50 µM (not active)

SMILES: CC(Sc1nc(N2CCCCC2)c2c(c1C#N)CCCC2)C(=O)O (stereo not drawn)
EC50 [4]: > 79.4 µM (not active) | EC50 [5]: 64.9 µM (not active) | EC50 [6]: 33.9 µM (inactive)

SMILES: COc1ccc([N+](=O)[O-])cc1NC(=S)NC(C)=O
IC50 (HEK293): > 67.6 µM (inactive) | IC50 [7]: > 67.6 µM (inactive)

SMILES: COc1ccc(NC(=O)/C(C#N)=C/c2ccc(Sc3nncn3C)c([N+](=O)[O-])c2)cc1
CC50 [8]: > 40 µM (active) | IC50 [1]: > 100 µM (active)

SMILES: O=C(O)COc1ccccc1/C=N/Nc1ccc(S(=O)(=O)Nc2ccc(Cl)cc2)cc1[N+](=O)[O-]
IC50 (Aminopeptidase N): 38.9 µM (active) | IC50 (Genome polyprotein): 36.7 µM (active)

Now from value to compound, other results behind:

IC50 [1]: > 12.5 µM (active)
SMILES: COc1ccc(NC(=O)CSc2nnc(C)n2Cc2ccccc2)cc1

IC50 [1]: > 100 µM (active)
SMILES: Cc1ccc(C(=O)OCc2cn3ccccc3n2)cc1

IC50 [11]: > 69.5 µM (inactive)
SMILES: Cc1ccccc1-c1nc(S(=O)(=O)c2ccc(Br)cc2)c(NCc2cccnc2)o1
IC50 [9]: > 69.5 µM (inactive) | CC50 [10]: 21.9 µM (active)
